Measurements reported in publication PMC10251509, “Ultrafast Fragment Screening Using Photo-Hyperpolarized (CIDNP) NMR” (Journal of the American Chemical Society, 2023).
Where a SMILES comes first, the peptide text is derived from it.

Biological target: T1, PDZ2 domain of human tyrosine phosphatase 1E (hPTP1E) (Homo sapiens, UniProt Q12923)
T1 construct: the PDZ2 domain of human tyrosine phosphatase 1E (hPTP1E); polyhistidine (N); made in house; host or cells: Escherichia coli BL21 (DE3)
T1 sequence (Q12923 1368-1452 limits assumed): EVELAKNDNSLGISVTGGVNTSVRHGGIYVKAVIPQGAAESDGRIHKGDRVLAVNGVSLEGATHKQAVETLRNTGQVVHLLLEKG
Assay: [15N,1H]-HSQC chemical shift perturbation / titration of peptides with PDZ2 domain
Assay type: binding
Conditions: [15N,1H]-HSQC-based titration series, calculated by Titan
Description: To establish a proof of concept, we decided to design and study peptides that bind to the PDZ2 domain of human tyrosine phosphatase comprising a tryptophane at the N-terminus of the peptides for detection by photo-CIDNP since tryptophane is known to be well polarized in the presence of fluorescein.[10],[25] The positive and negative control peptides (i.e., WVSAV and WEKLQT, respectively) were then checked in their binding capacity using [^15N,^1H]-HSQC experiments (Figure 2A,C).
Figure 2 Peptide binding studies of peptides to the PDZ2 domain of the human tyrosine phosphatase by standard chemical shift perturbation 2D NMR experiments and photo-CIDNP 1D ^1H NMR. (A) and (C) 2D [^15N,^1H]-HSQC spectra of the ^15N-labeled PDZ2 domain in the absence (black) and presence (green) of the peptide WVSAV (A) or WEKLQT (C), the experiments were recorded each within ca. 30 min. Photo-CIDNP ^1H 1D NMR spectra of the tryptophane aromatic resonances of (B) WVSAV and (D) WEKLQT in the absence (black lines) and presence (green lines) of the PDZ2 domain of the human tyrosine phosphatase, the experiments were recorded each within ca. 5 s. All of the 1D NMR spectra are single-scan experiments and were recorded with 100 μM peptide, ±100 μM PDZ2 domain at 298 K. The hyperpolarization was triggered by 4 s of light irradiation (450 nm, 1 W) in the presence of 25 μM fluorescein in photo-CIDNP buffer. […]

CC(C)[C@H](NC(=O)[C@H](C)NC(=O)[C@H](CO)NC(=O)[C@@H](NC(=O)[C@@H](N)Cc1c[nH]c2ccccc12)C(C)C)C(=O)O [WVSAV] (H-WVSAV-OH)
Kd: 111 ± 3.3 µM
